In PubChem BioAssay AID256 (DTP/NCI, 2004):
Toxic doses and inconclusive results are not listed.

Test system: CD2F1 mice, L1210 leukemia ip, survival T/C
Assay: NCI In Vivo Anticancer Drug Screen. Data for tumor model L1210 Leukemia (intraperitoneal) in CD2F1 (CDF1) mice
Conditions: higher = longer survival
Method in brief: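 Vehicle-treated tumor-bearing mice served as controls (C) for compound-treated mice (T). Reported figure is T divided by C.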

[1] = endpoint: mean survival time, dose: 100.0 mg/kg/injection, schedule: Q04DX003 (ip), vehicle: saline with Tween-80
[2] = endpoint: mean survival time, dose: 100.0 mg/kg/injection, schedule: Q04DX003 (ip), vehicle: saline
[3] = endpoint: mean survival time, dose: 200.0 mg/kg/injection, schedule: Q04DX003 (ip), vehicle: saline
[4] = endpoint: mean survival time, dose: 75.0 mg/kg/injection, schedule: Q01DX001 (ip), vehicle: saline
[5] = endpoint: mean survival time, dose: 150.0 mg/kg/injection, schedule: Q01DX001 (ip), vehicle: saline
[6] = endpoint: mean survival time, dose: 100.0 mg/kg/injection, schedule: Q01DX009 (ip), vehicle: saline with Tween-80
[7] = endpoint: mean survival time, dose: 100.0 mg/kg/injection, schedule: Q01DX001 (ip), vehicle: saline with Tween-80
[8] = endpoint: mean survival time, dose: 200.0 mg/kg/injection, schedule: Q01DX001 (ip), vehicle: saline with Tween-80
[9] = endpoint: mean survival time, dose: 400.0 mg/kg/injection, schedule: Q01DX001 (ip), vehicle: saline with Tween-80

## CCCCC(=O)N(c1ccc(Nc2c3ccccc3nc3cc([N+](=O)[O-])ccc23)cc1)S(C)(=O)=O
endpoint: mean survival time, dose: 2.1 mg/kg/injection, schedule: Q04DX003 (ip), vehicle: Klucel (hydroxypropylcellulose) (HPC)
  T/C: 117 % of control
endpoint: mean survival time, dose: 25.0 mg/kg/injection, schedule: Q01DX009 (ip), vehicle: saline with Tween-80
  T/C: 96 % of control
[1]
  T/C: 98 % of control
[2]
  T/C: 167 % of control
endpoint: mean survival time, dose: 150.0 mg/kg/injection, schedule: Q04DX003 (ip), vehicle: saline with Tween-80
  T/C: 93 % of control
[3]
  T/C: 113 % of control

## CC(C)CCC(C(=O)O)C(=O)O
[4]
  T/C: 96 % of control
[5]
  T/C: 102 % of control

## CCNC(=O)OCC1C2=C(C(=O)C(C)=C(N)C2=O)N2CC3C(N3C)C12OC (stereo not given)
endpoint: mean survival time, dose: 133.0 mg/kg/injection, schedule: Q01DX001 (ip), vehicle: carboxymethylcellulose (CMC)
  T/C: 118 % of control
endpoint: mean survival time, dose: 300.0 mg/kg/injection, schedule: Q01DX001 (ip), vehicle: carboxymethylcellulose (CMC)
  T/C: 111 % of control

## CC(=O)C(C)(C)N(C)c1ccccc1
[2]
  T/C: 97 % of control
[3]
  T/C: 93 % of control
endpoint: mean survival time, dose: 400.0 mg/kg/injection, schedule: Q04DX003 (ip), vehicle: saline
  T/C: 93 % of control

## O=[N+]([O-])c1ccc(/C=C/c2ccc([N+](=O)[O-])cc2S(=O)(=O)O)c(S(=O)(=O)O)c1
[6]
  T/C: 102 % of control
endpoint: mean survival time, dose: 200.0 mg/kg/injection, schedule: Q01DX009 (ip), vehicle: saline with Tween-80
  T/C: 105 % of control
endpoint: mean survival time, dose: 400.0 mg/kg/injection, schedule: Q01DX009 (ip), vehicle: saline with Tween-80
  T/C: 94 % of control

## CCOP(=O)(C/C(=N\Nc1ccc([N+](=O)[O-])cc1[N+](=O)[O-])c1ccccc1)c1ccccc1 (stereo not given)
[7]
  T/C: 90 % of control
[8]
  T/C: 92 % of control
[9]
  T/C: 97 % of control

## CC(Br)(C(=O)O)C1CCCCC1 (stereo not given)
[7]
  T/C: 93 % of control
[8]
  T/C: 96 % of control
[9]
  T/C: 99 % of control

## CC1(C)C/C(=C\c2ccc([N+](=O)[O-])cc2)C(=O)c2ccccc21
endpoint: mean survival time, dose: 12.5 mg/kg/injection, schedule: Q01DX009 (ip), vehicle: Klucel (hydroxypropylcellulose) (HPC)
  T/C: 102 % of control
endpoint: mean survival time, dose: 25.0 mg/kg/injection, schedule: Q01DX009 (ip), vehicle: Klucel (hydroxypropylcellulose) (HPC)
  T/C: 98 % of control
endpoint: mean survival time, dose: 50.0 mg/kg/injection, schedule: Q01DX009 (ip), vehicle: Klucel (hydroxypropylcellulose) (HPC)
  T/C: 96 % of control
endpoint: mean survival time, dose: 100.0 mg/kg/injection, schedule: Q01DX009 (ip), vehicle: Klucel (hydroxypropylcellulose) (HPC)
  T/C: 98 % of control
endpoint: mean survival time, dose: 200.0 mg/kg/injection, schedule: Q01DX009 (ip), vehicle: Klucel (hydroxypropylcellulose) (HPC)
  T/C: 93 % of control
endpoint: mean survival time, dose: 400.0 mg/kg/injection, schedule: Q01DX009 (ip), vehicle: Klucel (hydroxypropylcellulose) (HPC)
  T/C: 94 % of control

## COC(c1ccccc1)C(c1ccccc1)[N+]1(C)CCCCC1 (stereo not given)
[4]
  T/C: 97 % of control
[5]
  T/C: 113 % of control
endpoint: mean survival time, dose: 300.0 mg/kg/injection, schedule: Q01DX001 (ip), vehicle: saline
  T/C: 97 % of control

## C1CC2CC1C1OC21 (stereo not given)
endpoint: mean survival time, dose: 100.0 mg/kg/injection, schedule: Q04DX003 (ip), vehicle: other
  T/C: 94 % of control
endpoint: mean survival time, dose: 200.0 mg/kg/injection, schedule: Q04DX003 (ip), vehicle: other
  T/C: 96 % of control
endpoint: mean survival time, dose: 400.0 mg/kg/injection, schedule: Q04DX003 (ip), vehicle: other
  T/C: 91 % of control

## NC1CCCCC1N.O=C1C=CC(=C(c2ccc(O)cc2)c2ccccc2S(=O)(=O)[O-])C=C1.O=[N+]([O-])[O-].[Pt+4]
endpoint: median survival time, dose: 1.56 mg/kg/injection, schedule: Q04DX003 (ip), vehicle: saline
  T/C: 170 % of control
endpoint: median survival time, dose: 3.12 mg/kg/injection, schedule: Q04DX003 (ip), vehicle: saline with Tween-80
  T/C: 361 % of control
endpoint: median survival time, dose: 3.12 mg/kg/injection, schedule: Q04DX003 (ip), vehicle: saline
  T/C: 353 % of control
endpoint: median survival time, dose: 6.25 mg/kg/injection, schedule: Q04DX003 (ip), vehicle: saline with Tween-80
  T/C: 361 % of control
endpoint: median survival time, dose: 6.25 mg/kg/injection, schedule: Q04DX003 (ip), vehicle: saline
  T/C: 243 % of control
endpoint: median survival time, dose: 12.5 mg/kg/injection, schedule: Q04DX003 (ip), vehicle: saline
  T/C: 365 % of control

## CC(C)CCCN
endpoint: mean survival time, dose: 100.0 mg/kg/injection, schedule: Q01DX001 (ip), vehicle: saline
  T/C: 100 % of control
endpoint: mean survival time, dose: 200.0 mg/kg/injection, schedule: Q01DX001 (ip), vehicle: saline
  T/C: 97 % of control
endpoint: mean survival time, dose: 400.0 mg/kg/injection, schedule: Q01DX001 (ip), vehicle: saline
  T/C: 97 % of control

## CCC(C)C(CO)c1ccccc1 (stereo not given)
endpoint: mean survival time, dose: 50.0 mg/kg/injection, schedule: Q01DX009 (ip), vehicle: saline with Tween-80
  T/C: 98 % of control
[6]
  T/C: 88 % of control

## Cc1cc(F)ccc1[NH-].Cc1cc(F)ccc1[NH-].[Cl][Pt+2][Cl]
endpoint: mean survival time, dose: 12.5 mg/kg/injection, schedule: Q04DX003 (ip), vehicle: saline with Tween-80
  T/C: 106 % of control
endpoint: mean survival time, dose: 25.0 mg/kg/injection, schedule: Q04DX003 (ip), vehicle: saline with Tween-80
  T/C: 101 % of control
endpoint: mean survival time, dose: 50.0 mg/kg/injection, schedule: Q04DX003 (ip), vehicle: saline with Tween-80
  T/C: 91 % of control
[1]
  T/C: 95 % of control
endpoint: mean survival time, dose: 200.0 mg/kg/injection, schedule: Q04DX003 (ip), vehicle: saline with Tween-80
  T/C: 89 % of control
